Measured values taken from patent publication US10508118B2, “Pyrimidopyrrole compounds, method for preparing the same, pharmaceutical compositions comprising the same and uses thereof” (Xiamen University, priority 2015, dated 2019).
Read-outs that look alike come from different tables or passages of the source.

Experiments:
Type in all cases: cell-based
EML4-ALK-BaF3 = target: T1, EML4-ALK-BaF3 (Homo sapiens, UniProt Q9UM73); assay: Growth inhibition of EML4-ALK transformed BaF3 cells (MTS); conditions: for IC50: EML4-ALK-BaF3 cells, 48 hours, MTS
T1 construct: expressed in transfected cells; host or cells: Ba/F3 cells; the other entry of the earlier key: EML4 (Q9HC35, Echinoderm microtubule-associated protein-like 4)
Outline: (§1)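 Ba/F3 cells (2×10^4/well) in DMEM or RPMI1640 with 10% FBS exposed to 8 compound concentrations (top 10 μM, 1/3 serial dilution, 0.1% DMSO) for 48 h at 37 °C, 5% CO2. Viability by MTS/PES, 1-4 h, OD 490 nm; triplicates. IC50 fitted from inhibition rate.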

EML4-ALK (L1196M)-BaF3 = target: T2, EML4-ALK (L1196M)-BaF3 (Homo sapiens, UniProt Q9UM73, L1196M); assay: Growth inhibition of EML4-ALK (L1196M) transformed BaF3 cells (MTS); conditions: 48 hours
T2 construct: expressed in transfected cells; host or cells: Ba/F3 cells; the other entry of the earlier key: EML4 (Q9HC35, Echinoderm microtubule-associated protein-like 4)
Outline: as §1

NPM-ALK-BaF3 = target: T3, NPM-ALK-BaF3 (Homo sapiens, UniProt Q9UM73); assay: Growth inhibition of NPM-ALK transformed BaF3 cells (MTS); conditions: 48 hours
T3 construct: expressed in transfected cells; host or cells: Ba/F3 cells; the other entry of the earlier key: NPM1 (P06748, Nucleophosmin)
Outline: (§2)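 Cells (2×10^4/well) exposed 48 h at 37 °C to 8 compound concentrations, 3-fold down from 10 μM, in 0.1% DMSO. Growth read by MTS/PES at 490 nm after 1–4 h; inhibition normalised to DMSO and cell-free blank, IC50 from triplicates.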

wild type BaF3 = assay: Growth inhibition of wild type BaF3 cells (broad-spectrum toxicity); conditions: Mus musculus, BaF3, 48 h, MTS
Outline: as §2

lung cancer cells H3122 = assay: Growth inhibition of tumor cells H3122; conditions: Homo sapiens, NCI-H3122
lung cancer cells A549 = assay: Growth inhibition of tumor cells A549; conditions: Homo sapiens
melanoma A375 = assay: Growth inhibition of tumor cells A375; conditions: Homo sapiens, A-375
liver cancer HepG2 = assay: Growth inhibition of tumor cells HepG2; conditions: Homo sapiens
breast cancer MCF7 = assay: Growth inhibition of tumor cells MCF7; conditions: Homo sapiens
[1] = system: DFC1076 (crizotinib resistant tumor cell lines); assay: Growth inhibition of tumor cells DFC1076; conditions: ALK kinase-positive lung cancer cell line
[2] = Table 11, read-out: EML4-ALK (L1196M) (IC50 nM)
[3] = Table 12, read-out: L1196M (IC50 nM)

Row | Structure (SMILES) | IC50 (EML4-ALK-BaF3; Table 11) | IC50 (EML4-ALK (L1196M)-BaF3; [2]) | IC50 (NPM-ALK-BaF3; Table 11) | IC50 (wild type BaF3; Table 11) | IC50 (EML4-ALK-BaF3; Table 12) | IC50 (EML4-ALK (L1196M)-BaF3; [3]) | IC50 (NPM-ALK-BaF3; Table 12) | IC50 (wild type BaF3; Table 12) | also measured
1 | COc1cc(N2CCC(N3CCN(C)CC3)CC2)ccc1Nc1nc(Nc2ccccc2S(=O)(=O)C(C)C)c2[nH]ccc2n1 [ID-3] | 14.9 nM | 168 nM | 303 nM | 1010 nM | – | – | – | – | targeting selectivity (EML4-ALK-BaF3; ratio of IC50 between wild-type BaF3 and ALK transformed BaF3 cells): good targeting selectivity; IC50 (lung cancer cells H3122): 61.1 nM; IC50 (lung cancer cells A549): 2720 nM; IC50 (melanoma A375): 3760 nM; IC50 (liver cancer HepG2): 3440 nM; IC50 (breast cancer MCF7): 2840 nM; growth inhibition [1]: good growth inhibition
2 | COC(=O)c1ccccc1Oc1nc(Nc2ccc(N3CCN(C)CC3)cc2OC)nc2cc[nH]c12 [IV-1] | 6900 nM | 7310 nM | > 10000 nM | > 10000 nM | – | – | – | – | –
3 | CSc1ccccc1Nc1nc(Nc2ccc(S(N)(=O)=O)cc2)nc2cc[nH]c12 [IA-3] | 2420 nM | 6630 nM | 12900 nM | 7710 nM | – | – | – | – | –
4 | COC(=O)c1ccccc1Oc1nc(Nc2ccc(N3CCC(O)CC3)cc2)nc2ccn(C)c12 [IIN-3] | – | – | – | – | > 10000 nM | > 10000 nM | > 10000 nM | > 10000 nM | –
5 | CNc1nc(Nc2ccc(N3CCC(O)CC3)cc2)nc2cc[nH]c12 [IQ-3] | > 10000 nM | > 10000 nM | > 10000 nM | > 10000 nM | – | – | – | – | –
6 | CC(C)S(=O)(=O)c1ccccc1CNc1nc(Nc2ccc(N3CCN(C)CC3)cc2)nc2cc[nH]c12 [IO-5] | 4870 nM | 5200 nM | 5030 nM | 1910 nM | – | – | – | – | –
7 | COC(=O)c1ccccc1Oc1nc(Nc2ccc(N3CCC(N4CCN(C)CC4)CC3)cc2OC)nc2cc[nH]c12 [IV-2] | ~8980 nM | 3960 nM | ~9140 nM | ~8450 nM | – | – | – | – | –
8 | COC(=O)c1cccc(Nc2nc(Nc3ccc(N4CCC(O)CC4)cc3)nc3ccn(C)c23)c1 [IIH-2] | – | – | – | – | 1970 nM | 1810 nM | 4470 nM | 2830 nM | –
9 | COC(=O)c1ccccc1Oc1nc(Nc2ccc(N3CCC(O)CC3)cc2)nc2cc[nH]c12 [IV-3] | 4550 nM | 4340 nM | 8150 nM | 8920 nM | – | – | – | – | –
10 | CCOc1cc(N2CCC(O)CC2)ccc1Nc1nc(Nc2ccccc2S(C)(=O)=O)c2c(ccn2C)n1 [IIC-6] | – | – | – | – | > 10000 nM | > 10000 nM | > 10000 nM | > 10000 nM | –
11 | CC(C)Sc1ccccc1Nc1nc(Nc2ccc(N3CCC(O)CC3)cc2)nc2cc[nH]c12 [IB-2] | 786 nM | 1740 nM | 1770 nM | 1920 nM | – | – | – | – | –
12 | COc1cc(N2CCN(C)CC2)ccc1Nc1nc(NCc2ccccc2S(=O)(=O)C(C)C)c2c(ccn2C)n1 [IIL-1] | – | – | – | – | 1300 nM | 1590 nM | 1350 nM | ~2610 nM | –
13 | Cc1cc(Nc2nc(Nc3ccccc3S(=O)(=O)C(C)C)c3c(ccn3C)n2)c(OC(C)C)cc1C1CCN(C)CC1 [IID-8] | – | – | – | – | 1760 nM | 4770 nM | ~3460 nM | ~8380 nM | –
14 | CN1CCN(c2ccc(Nc3nc(Nc4ccccc4S(C)(=O)=O)c4c(ccn4C)n3)cc2)CC1 [IIC-5] | – | – | – | – | ~3240 nM | 4410 nM | 3780 nM | ~7730 nM | –
15 | COC(=O)c1ccccc1Sc1nc(Nc2ccc(N3CCC(O)CC3)cc2)nc2cc[nH]c12 [IU-3] | 4900 nM | 4180 nM | 8270 nM | 6520 nM | – | – | – | – | –
16 | CSc1ccccc1Nc1nc(Nc2ccc(N3CCC(O)CC3)cc2)nc2cc[nH]c12 [IA-2] | 649 nM | 761 nM | 1030 nM | 1520 nM | – | – | – | – | –
17 | CC(C)S(=O)(=O)c1ccccc1Nc1nc(Nc2ccc(N3CCN(C)CC3)cc2)nc2cc[nH]c12 [ID-2] | 1170 nM | 2030 nM | ~2850 nM | ~8310 nM | – | – | – | – | –
18 | COC(=O)c1ccccc1Nc1nc(Nc2ccc(N3CCC(O)CC3)nc2)nc2cc[nH]c12 [IG-18] | 4680 nM | 4370 nM | 8760 nM | > 10000 nM | – | – | – | – | –
19 | COC(=O)c1cccc(Nc2nc(Nc3ccc(N4CCC(N5CCCC5)CC4)cc3OC)nc3cc[nH]c23)c1 [II-6] | 4960 nM | ~7400 nM | 6720 nM | ~8220 nM | – | – | – | – | –

Row | Structure (SMILES) | IC50 (EML4-ALK-BaF3; Table 11) | IC50 (EML4-ALK (L1196M)-BaF3; [2]) | IC50 (NPM-ALK-BaF3; Table 11) | IC50 (wild type BaF3; Table 11) | IC50 (EML4-ALK-BaF3; Table 12) | IC50 (EML4-ALK (L1196M)-BaF3; [3]) | IC50 (NPM-ALK-BaF3; Table 12) | IC50 (wild type BaF3; Table 12) | also measured
20 | CCNc1nc(Nc2ccc(N3CCC(N4CCN(C)CC4)CC3)cc2OC)nc2cc[nH]c12 [IR-2] | > 10000 nM | > 10000 nM | > 10000 nM | > 10000 nM | – | – | – | – | –
21 | CCOc1cc(N2CCC(O)CC2)ccc1Nc1nc(Nc2ccccc2S(=O)(=O)C(C)C)c2c(ccn2C)n1 [IID-6] | – | – | – | – | 1600 nM | ~3000 nM | ~3130 nM | > 10000 nM | –
22 | CC(C)S(=O)(=O)c1ccccc1Nc1nc(Nc2ccc(N3CCC(O)CC3)cc2)nc2ccn(C)c12 [IID-3] | – | – | – | – | 2160 nM | 6650 nM | 6990 nM | > 10000 nM | –
23 | COc1cc(N2CCC(N3CCN(C)CC3)CC2)ccc1Nc1nc(NCc2ccccc2SC)c2[nH]ccc2n1 [IL-2] | ~2570 nM | 2000 nM | ~7720 nM | ~7840 nM | – | – | – | – | –
24 | CC(C)S(=O)(=O)c1ccccc1Nc1nc(Nc2ccc(S(N)(=O)=O)cc2)nc2cc[nH]c12 [ID-5] | > 10000 nM | > 10000 nM | > 10000 nM | > 10000 nM | – | – | – | – | –
25 | COc1cc(N2CCN(C)CC2)ccc1Nc1nc(NCc2ccccc2SC)c2c(ccn2C)n1 [III-1] | – | – | – | – | ~1360 nM | 1690 nM | ~2740 nM | ~2780 nM | –
26 | COC(=O)c1ccccc1Nc1nc(Nc2ccc(N3CCN(C)CC3)cn2)nc2cc[nH]c12 [IG-13] | > 10000 nM | > 10000 nM | > 10000 nM | > 10000 nM | – | – | – | – | –
27 | COc1cc(N2CCN(C)CC2)ccc1Nc1nc(Nc2ccccc2S(=O)(=O)C(C)C)c2c(ccn2C)n1 [IID-1] | – | – | – | – | 546 nM | ~2960 nM | 2260 nM | ~8180 nM | –
28 | CN1CCN(c2ccc(Nc3nc(NCc4ccccc4S(C)(=O)=O)c4c(ccn4C)n3)cc2)CC1 [IIK-5] | – | – | – | – | 1430 nM | ~2560 nM | 1880 nM | ~2870 nM | –
29 | COC(=O)c1ccccc1Nc1nc(Nc2ccc(N3CCN(C)CC3)cc2)nc2cc[nH]c12 [IG-6] | 1370 nM | 1520 nM | 1740 nM | ~3140 nM | – | – | – | – | –
30 | COC(=O)c1ccccc1Nc1nc(Nc2ccc(N3CCN(C)CC3)cc2OC)nc2ccn(C)c12 [IIG-1] | – | – | – | – | 2370 nM | 3440 nM | 4870 nM | 5170 nM | –
31 | CS(=O)(=O)c1ccccc1CNc1nc(Nc2ccc(S(N)(=O)=O)cc2)nc2cc[nH]c12 [IN-4] | > 10000 nM | > 10000 nM | > 10000 nM | > 10000 nM | – | – | – | – | –
32 | C[C@@H](Oc1cc(-c2cnn(C3CCNCC3)c2)cnc1N)c1c(Cl)ccc(F)c1Cl [Crizotinib, crizotinib, reference compound] | – | – | – | 1080 nM | – | – | – | 1080 nM | IC50 (lung cancer cells H3122): 185 nM; IC50 (lung cancer cells A549): 2400 nM
33 | CNC(=O)c1ccccc1Nc1nc(Nc2ccc(S(N)(=O)=O)cc2)nc2cc[nH]c12 [IJ-3] | > 10000 nM | > 10000 nM | > 10000 nM | > 10000 nM | – | – | – | – | –
34 | COc1cc(N2CCC(N3CCN(C)CC3)CC2)ccc1Nc1nc(NC2CC2)c2[nH]ccc2n1 [IS-2] | > 10000 nM | 5030 nM | > 10000 nM | > 10000 nM | – | – | – | – | –
35 | COc1cc(N2CCN(C)CC2)ccc1Nc1nc(NCc2ccccc2SC(C)C)c2[nH]ccc2n1 [IM-1] | ~300 nM | 587 nM | 572 nM | ~867 nM | – | – | – | – | –
36 | COC(=O)c1ccccc1Oc1nc(Nc2ccc(N3CCN(C)CC3)cc2OC)nc2ccn(C)c12 [IIN-1] | – | – | – | – | ~5750 nM | 6470 nM | > 10000 nM | ~9960 nM | –
37 | COC(=O)c1ccccc1Nc1nc(Nc2cc(C)c(C3CCN(C)CC3)cc2OC)nc2cc[nH]c12 [IG-14] | ~1260 nM | 884 nM | 1390 nM | ~2550 nM | – | – | – | – | –
